The text below walks through data of patent US5576296A, “Galanin antagonist” (priority 1991, dated 1996).

This assay deals with scopolamine-induced release of ACh. Description: Microdialysis: scopolamine-induced release of ACh in vivo from rat ventral hippocampus. As to conditions: scopolamine 0.3 mg/kg s.c. alone; peak (second) 20 min fraction; n=2. The protocol: 2) Galanin inhibits acetylcholine release, measured according to Fisone G., et al (Proc. Natl. Acad. Sci. vol 84, 1987, 7339-7343). By using substantially the same procedure as the cited Fisone G., et al, a peptide according to the invention, M15, is now shown to counteract the inhibitory effects of galanin on the scopolamine-induced release of acetylcholine in vivo.
Surgery and basic methodology. Experiments were carried out with female CD-COBS (Charles River, Como, Italy) rats, weighing 200-260 g. Animals were anesthetized with equitensin (1% pentobarbital, 4% chloral hydrate). […] The microdialysis probe extended 3 mm beyond the end of the guide cannula; it was perfused at a constant rate of 2 μl (min with Ringer's solution (NaCl, 147 mM; CaCl2, 2.2 mM and KCl, 4.0 mM), containing 10 μM physostigmine sulfate and adjusted to pH 7.0 with NaOH. The initial 40 min perfusate was discarded. Thereafter, perfusates were collected every 20 min during a total perfusion period of 260 min. At the end of the collection period, the samples were immediately frozen on solid CO2 and lyophilized. Acetylcholine (Ach) content was quantified by a specific radioenzymatic method described in detail by Consolo S., et al. (J. Neurochem. […]

As to `CN1[C@@H]2C[C@@H](OC(=O)[C@H](CO)c3ccccc3)C[C@H]1[C@@H]1O[C@@H]12` [Scopolamine], the ACh release was 13.1 pmol.
